Results on 1 compound are retold here after patent US20170296460A1, “METHOD OF IMPROVING THE APPEARANCE OF PERIORBITAL DYSCHROMIA” (The Procter & Gamble Company, priority 2016, published 2017).

This assay has as its system B16-F1 mouse melanoma cell line. Nature of the assay: B16 melanin synthesis inhibition assay. Format: cell-based. Conditions: B16-F1 cells, OD 410 nm. As for the experimental part:
In this example, a commercially available B16-F1 mouse melanoma cell line from American Tissue Culture Collection, Virginia, USA was employed in a conventional melanin synthesis inhibition assay. The cell culture medium used in the assay is 500 mL of Dulbecco's Modified Eagle's Medium (DMEM), 50 mL Fetal Bovine Serum (FBS), and 5 mL of penicillin-streptomycin liquid. B16-F1 cells that are cultured in this medium and grown to greater than 90% confluency will synthesize melanin. While not intending to be bound by any theory, it is hypothesized that the melanin synthesis is stimulated by the culture medium and/or stress induced by growth to a high confluency. […] Equipment used in the assay include a CO2 incubator, such as a Forma Series Model 3110 by Therma Scientific, Massachusetts, USA; a hemocytometer, such as a Bright Line model by Hauser Scientific, Pennsylvania, USA; and a UV-Visible Spectrum Plate Reader, such as a SpectraMax250 from Molecular Devices, California, USA. […] Day 3: The cells from the T-150 flask are trypsinized, and the concentration of cells is determined using the hemacytometer. […] Read the 96 well plate using the UV-Vis Plate Reader at 410 nm to optically measure the amount of melanin produced between wells that are treated with the pumpkin seed extract and control wells that are not. […] The concentration of test agent needed to provide the IC 50 is recorded.

Consider `Oc1ccc(OC2CCCCO2)cc1` (stereo not shown) [Deoxyarbutin], for which the “Concentration Needed for IC 50” value worked out at 0.008 v/v.
